Results as given in the supplement of paper PMC10307832.

Columns and labels:
Assay in all cases: relative viability (nuclei count vs DMSO), 5 days (fraction); higher = more cells survive
Halofuginone = compound: O=C(C[C@H]1NCCC[C@@H]1O)Cn1cnc2cc(Br)c(Cl)cc2c1=O (racemic) [Halofuginone]
In short: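 On vehicle-anchored 1536-well plates, lung cancer cell lines held overnight at 37 °C were pinned with five library-drug doses (not always all listed) spaced by √10. With no medium change over 5 days, they were then fixed, permeabilised and Hoechst-stained in one step and imaged at 4×. MetaXpress counted nuclei, and viability is the median across plates of treated-well over vehicle-well nuclei. Acceptance needed control CV below 25% and at least one doubling.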

Cediranib + Dasatinib = compound: COc1cc2c(Oc3ccc4[nH]c(C)cc4c3F)ncnc2cc1OCCCN1CCCC1 [Cediranib] + Cc1nc(Nc2ncc(C(=O)Nc3c(C)cccc3Cl)s2)cc(N2CCN(CCO)CC2)n1 [Dasatinib] (partner 0.075 µM)
In short: (§1)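 Lung cancer cell lines in 1536-well plates were dosed by pin tool the day after seeding, either with one drug alone or with a fixed anchor-drug dose plus five library-drug doses (not always all listed) in √10 steps. After 5 days, cells were fixed and their nuclei stained in one step (final 0.05% Triton X-100, 1% formaldehyde, 1 ug/ml Hoechst), then counted on 4× images. Relative viability is the nuclei count in treated wells divided by that in vehicle wells. Values are medians of duplicate plates.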

Decitabine + Palbociclib = compound: Nc1ncn([C@H]2C[C@H](O)[C@@H](CO)O2)c(=O)n1 [Decitabine] + CC(=O)c1c(C)c2cnc(Nc3ccc(N4CCNCC4)cn3)nc2n(C2CCCC2)c1=O [Palbociclib] (partner 0.5 µM)
In short: as §1

Decitabine + Pictilisib = compound: Nc1ncn([C@H]2C[C@H](O)[C@@H](CO)O2)c(=O)n1 [Decitabine] + CS(=O)(=O)N1CCN(Cc2cc3nc(-c4cccc5[nH]ncc45)nc(N4CCOCC4)c3s2)CC1 [Pictilisib] (partner 1 µM)
In short: as §1

| Cell Line | relative viability (Halofuginone; 0.001 µM) | relative viability (Halofuginone; 0.003162 µM) | relative viability (Halofuginone; 0.01 µM) | relative viability (Halofuginone; 0.03162 µM) | relative viability (Halofuginone; 0.1 µM) | relative viability (Cediranib + Dasatinib; first compound 0.04 µM) | relative viability (Cediranib + Dasatinib; first compound 0.1265 µM) | relative viability (Cediranib + Dasatinib; first compound 0.4 µM) | relative viability (Cediranib + Dasatinib; first compound 1.265 µM) | relative viability (Cediranib + Dasatinib; first compound 4 µM) | relative viability (Decitabine + Palbociclib; first compound 0.04 µM) | relative viability (Decitabine + Palbociclib; first compound 0.1265 µM) | relative viability (Decitabine + Palbociclib; first compound 0.4 µM) | relative viability (Decitabine + Palbociclib; first compound 1.265 µM) | relative viability (Decitabine + Palbociclib; first compound 4 µM) | relative viability (Decitabine + Pictilisib; first compound 0.04 µM) | relative viability (Decitabine + Pictilisib; first compound 0.1265 µM) | relative viability (Decitabine + Pictilisib; first compound 0.4 µM) | relative viability (Decitabine + Pictilisib; first compound 1.265 µM) | relative viability (Decitabine + Pictilisib; first compound 4 µM) |
| --- | --- | --- | --- | --- | --- | --- | --- | --- | --- | --- | --- | --- | --- | --- | --- | --- | --- | --- | --- | --- |
| NCI-H1355 | 0.989 | 1.02 | 0.94 | 0.941 | 0.899 | 0.686 | 0.745 | 0.658 | 0.655 | 0.747 | 0.374 | 0.345 | 0.329 | 0.275 | 0.277 | 0.529 | 0.44 | 0.293 | 0.254 | 0.23 |
| NCI-H1650 | 1 | 1.01 | 0.883 | 0.811 | 0.19 | 0.343 | 0.384 | 0.328 | 0.37 | 0.299 | 0.262 | 0.353 | 0.248 | 0.255 | 0.293 | 0.445 | 0.595 | 0.272 | 0.47 | 0.399 |
| SW 1573 | 1.08 | 1.06 | 0.908 | 0.692 | 0.278 | 0.646 | 0.661 | 0.43 | 0.389 | 0.524 | 0.429 | 0.407 | 0.367 | 0.228 | 0.251 | 0.535 | 0.425 | 0.491 | 0.279 | 0.202 |
| NCI-H661 | 1.01 | 0.962 | 0.956 | 0.907 | 0.85 | 1.01 | 1.28 | 0.842 | 0.926 | 0.976 | 0.489 | 0.468 | 0.417 | 0.348 | 0.361 | 0.346 | 0.344 | 0.372 | 0.288 | 0.242 |
| LU99A | 0.971 | 0.955 | 0.928 | 0.814 | 0.821 | 0.504 | 0.465 | 0.513 | 0.433 | 0.655 | 0.39 | 0.434 | 0.445 | 0.321 | 0.291 | 0.369 | 0.325 | 0.355 | 0.308 | 0.311 |
| LCLC-97TM1 | 0.913 | 0.938 | 1.01 | 0.995 | 0.679 | 0.893 | 0.81 | 0.799 | 0.876 | 0.834 | 0.207 | 0.197 | 0.171 | 0.152 | 0.22 | 0.145 | 0.166 | 0.0979 | 0.105 | 0.117 |
| LC-2-ad | 1.11 | 0.944 | 0.932 | 0.978 | 0.833 | 0.555 | 0.654 | 0.427 | 0.496 | 0.403 | 0.498 | 0.538 | 0.48 | 0.365 | 0.463 | 0.359 | 0.37 | 0.495 | 0.3 | 0.275 |
| NCI-H1395 | 0.984 | 0.872 | 0.809 | 0.868 | 0.768 | 0.44 | 0.45 | 0.37 | 0.374 | 0.405 | 0.583 | 0.606 | 0.6 | 0.55 | 0.523 | 0.57 | 0.579 | 0.522 | 0.417 | 0.458 |
| NCI-H2228 | 0.966 | 0.995 | 0.981 | 0.642 | 0.194 | 0.634 | 0.505 | 0.52 | 0.54 | 0.601 | 0.385 | 0.463 | 0.215 | 0.204 | 0.169 | 0.355 | 0.441 | 0.179 | 0.287 | 0.232 |
| NCI-H1944 | 0.962 | 0.951 | 0.918 | 0.963 | 0.922 | 0.216 | 0.227 | 0.221 | 0.193 | 0.236 | 0.331 | 0.32 | 0.313 | 0.294 | 0.281 | 0.353 | 0.424 | 0.369 | 0.319 | 0.299 |
| HOP-62 | 0.964 | 1.11 | 1.01 | 0.863 | 0.69 | 0.698 | 0.909 | 0.577 | 0.617 | 0.77 | 0.326 | 0.327 | 0.195 | 0.136 | 0.273 | 0.668 | 0.585 | 0.239 | 0.159 | 0.162 |
| NCI-H2347 | 1.08 | 1.01 | 1.02 | 1.02 | 0.886 | 0.262 | 0.288 | 0.268 | 0.277 | 0.381 | 0.462 | 0.417 | 0.411 | 0.423 | 0.437 | 0.59 | 0.599 | 0.63 | 0.495 | 0.554 |
| NCI-H2087 | 1.09 | 1.21 | 0.975 | 0.886 | 0.836 | 0.872 | 0.953 | 0.801 | 0.944 | 0.905 | 0.204 | 0.265 | 0.204 | 0.202 | 0.221 | 0.762 | 0.779 | 0.519 | 0.404 | 0.336 |
| EPLC-272H | 1.07 | 1.02 | 0.921 | 1.01 | 0.889 | 0.303 |  | 0.363 |  | 0.43 | 0.353 | 0.316 |  | 0.326 | 0.272 | 0.277 | 0.303 |  | 0.271 | 0.321 |
| LXF-289 | 0.98 | 1.02 | 0.994 | 1.01 | 1 | 0.252 | 0.3 | 0.192 | 0.3 | 0.236 | 0.539 | 0.418 | 0.346 | 0.27 | 0.238 | 0.75 | 0.808 | 0.471 | 0.4 | 0.317 |
| COR-L23 | 1.14 | 1.02 | 0.982 | 0.931 | 0.268 | 0.522 | 0.503 | 0.499 | 0.57 | 0.662 | 0.212 | 0.237 | 0.196 | 0.145 | 0.153 | 0.527 | 0.619 | 0.239 | 0.178 | 0.172 |
